17 compounds from patent publication US20160193216A1 (Nimbus Iris, Inc., priority 2012, published 2016) can be followed below.

The test system of experiment [1] is THP-1 cells. Briefly: LPS induced cytokine (TNFα and IL8) production assay in THP-1 cells. Format: cell-based. To be noted: Homo sapiens, 300 ng/mL LPS. The protocol:
Cytokine Production Assay
Provided compounds were also assayed in an LPS (Lipopolysacharide) or R848 (TLR-7 agonist) induced cytokine (TNFα and IL8) production assay in THP-1 cells, human peripheral blood mononuclear cells (hPBMC), and whole blood. The exemplary protocol for this assay in THP-1 cells was as follows below.
THP-1 cells from ATCC (TIB-202) were cultured in RPMI Medium 1640 (Invitrogen, Cat No. A10491-01), 10% fetal bovine serum (Invitrogen, Cat No. 10099141, Lot No. 8172882) containing 100 U/mL Penicillin, 100 μg/mL streptomycin (Invitrogen, Cat No. 15140-122), and 50 uM 2-Mercaptoethanol (Invitrogen, Cat No. 21985023). LPS-EK ultra pure (Invivogen, Cat No. tlrl-peklps) was used to induce IL8 and TNFα production, that was detected in the cell culture supernatant by IL8 HTRF kit (Cisbio, Cat No. 62IL8PEB) and TNFα HTRF kit (Cisbio, Cat No. 62TNFPEB), as per manufacturer instructions. Cells were cultured in 96 well assay plates at 100,000 cells per well, and compounds diluted in final 0.3% DMSO were pre-incubated with cells for 1 hour prior to stimulation with 300 ng/mL LPS. Cytokine production in cell supernatant was measured at 5 hours for TNFα and IL8 production, and for 16 hours for IL8 production and assessment of cell viability.
The compound numbers correspond to the compound numbers in Table 1. […] “NA” stands for “not assayed.”

The target of experiment [2] is T1, IRAK4 (Homo sapiens, UniProt Q9NWZ3).
T1 sequence (Q9NWZ3 1-460): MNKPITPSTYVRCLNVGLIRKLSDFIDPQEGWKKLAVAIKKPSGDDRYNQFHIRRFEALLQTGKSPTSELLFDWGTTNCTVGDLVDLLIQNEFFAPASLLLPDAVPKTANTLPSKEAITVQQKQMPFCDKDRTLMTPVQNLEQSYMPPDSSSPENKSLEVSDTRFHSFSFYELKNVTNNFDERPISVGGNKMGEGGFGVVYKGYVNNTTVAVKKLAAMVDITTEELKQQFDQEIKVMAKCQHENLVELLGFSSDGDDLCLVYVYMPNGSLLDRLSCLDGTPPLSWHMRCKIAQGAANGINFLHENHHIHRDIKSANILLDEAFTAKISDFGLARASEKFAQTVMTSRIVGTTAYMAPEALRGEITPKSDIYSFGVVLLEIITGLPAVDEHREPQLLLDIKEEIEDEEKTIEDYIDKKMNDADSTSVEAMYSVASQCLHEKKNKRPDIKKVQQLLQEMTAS
Briefly: IRAK-4 activity inhibition assay (Caliper). Type of experiment: biochemical. Particulars: 37 μM ATP, 3.5 nM IRAK4.

Molecules are shown by their SMILES. Structures can show the parent of a compound that is named as a salt. Where two headings read alike, the source gives them in different places.

One may read the IC50 as the point on the concentration scale where inhibition reaches its midpoint. On to `NC(=O)[C@@H](O)C[C@H]1CCc2sc3ncnc(O[C@H]4CC[C@H](N)CC4)c3c21` [Compound I-135, (S)-3-((R)-4-(((1r,4R)-4-aminocyclohexyl)oxy)-6,7-dihydro-5H-cyclopenta[4,5]thieno[2,3-d]pyrimidin-5-yl)-2-hydroxypropanamide], for which the concentration for half-maximal inhibition (IC50) in experiment [1] (read-out: IL8 production IC50) was 0.5 to 1 µM; in experiment [1] (read-out: TNFα production IC50) it was 0.5 to 1 µM; in experiment [2] it was less than 5 µM.
For the compound `CN[C@H]1CC[C@H](Oc2ncnc3sc4c(c23)[C@@H](C[C@H](O)C(N)=O)CC4)CC1` [Compound I-137, (2S)-2-hydroxy-3-[(3R)-12-[[4-(methylamino)cyclohexyl]oxy]-7-thia-9,11-diazatricyclo[6.4.0.0[2,6]]dodeca-1(8),2(6),9,11-tetraen-3-yl]propanamide], the IC50 in experiment [1] (read-out: IL8 production IC50) is 0.5 to 1 µM; in experiment [1] (read-out: TNFα production IC50), 0.5 to 1 µM; in experiment [2], less than 5 µM.
For `CN(C)[C@H]1CC[C@H](Oc2ncnc3sc4c(c23)[C@@H](CC(N)=O)CC4)CC1` [Compound I-43, 2-[(3R)-12-[[4-(dimethylamino)cyclohexyl]oxy]-7-thia-9,11-diazatricyclo[6.4.0.0[2,6]]dodeca-1(8),2(6),9,11-tetraen-3-yl]acetamide], the results for the half-maximal inhibitory concentration (IC50) in experiment [1] (read-out: IL8 production IC50), in experiment [1] (read-out: TNFα production IC50) and in experiment [2] were 0.5 to 1 µM, 0.5 to 1 µM and less than 5 µM, respectively.
Consider `CN(CCc1ccccn1)[C@H]1CC[C@H](Oc2ncnc3sc4c(c23)[C@@H](CC(N)=O)CC4)CC1` [Compound I-128, 2-((R)-4-(((1 r,4R)-4-(methyl(2-(pyridin-2-yl)ethyl)amino)cyclohexyl)oxy)-6,7-dihydro-5H-cyclopenta[4,5]thieno[2,3-d]pyrimidin-5-yl)acetamide], for which the IC50 in experiment [1] (read-out: IL8 production IC50) is 0.5 to 1 µM; in experiment [1] (read-out: TNFα production IC50), 1 to 5 µM; in experiment [2], less than 5 µM.
As to `NC(=O)[C@H]1CCc2sc3ncnc(N[C@H]4CC[C@H](N5CCOCC5)CC4)c3c2C1` [Compound I-207, (12S)-3-[[4-(morpholin-4-yl)cyclohexyl]amino]-8-thia-4,6-diazatricyclo[7.4.0.0[2,7]]trideca-1(9),2(7),3,5-tetraene-12-carboxamide], the IC50 in experiment [1] (read-out: IL8 production IC50) is 1 to 5 µM; in experiment [1] (read-out: TNFα production IC50) it was 1 to 5 µM; in experiment [2] it was less than 5 µM.
In the case of `CN(C)[C@H]1CC[C@H](Oc2ncnc3sc4c(c23)CN(S(C)(=O)=O)CC4)CC1` [Compound I-168, 4-([12-methanesulfonyl-8-thia-4,6,12-triazatricyclo[7.4.0.0-[2,7]]trideca-1(9),2(7),3,5-tetraen-3-yl]oxy)-N,N-dimethylcyclohexan-1-amine], the IC50 in experiment [1] (read-out: IL8 production IC50) was not below 5 µM; in experiment [1] (read-out: TNFα production IC50) it was not below 5 µM; in experiment [2], less than 5 µM.
As for `NC(=O)C(O)C[C@H]1CCc2sc3ncnc(O[C@H]4CC[C@H](N5CCOCC5)CC4)c3c21` (mixture of isomers) [Compound I-87, 2-hydroxy-3-((R)-4-(((1r,4R)-4-morpholinocyclohexyl)oxy)-6,7-dihydro-5H-cyclopenta[4,5]thieno[2,3-d]pyrimidin-5-yl)propanamide], the IC50 in experiment [1] (read-out: IL8 production IC50) and in experiment [1] (read-out: TNFα production IC50) was not above 0.5 µM each time.
Turning to `C[C@H](O)C[C@H]1CCc2sc3ncnc(O[C@H]4CC[C@H](N(C)C)CC4)c3c21` [Compound I-40, (2S)-1-[(3R)-12-[[4-(dimethylamino)cyclohexyl]oxy]-7-thia-9,11-diazatricyclo[6.4.0.0[2,61]]dodeca-1(8),2(6),9,11-tetraen-3-yl]propan-2-ol], the IC50 in experiment [1] (read-out: IL8 production IC50) was 1 to 5 µM; in experiment [1] (read-out: TNFα production IC50) it was 1 to 5 µM; in experiment [2] it was less than 5 µM.
Consider `CN(C)[C@H]1CC[C@H](Oc2ncnc3sc4c(c23)[C@@H](CC(O)C(N)=O)CC4)CC1` (stereo partly drawn) [Compound I-57, 3-[(3R)-12-[[4-(dimethylamino)cyclohexyl]oxy]-7-thia-9,11-diazatricyclo[6.4.0.0[2,6]]dodeca-1(8),2(6),9,11-tetraen-3-yl]-2-hydroxypropanamide], for which the half-maximal inhibitory concentration (IC50) is not above 0.5 µM in experiment [1] (read-out: IL8 production IC50), not above 0.5 µM in experiment [1] (read-out: TNFα production IC50) and less than 5 µM in experiment [2].
As to `CN(CC(=O)N1CCCC1)[C@H]1CC[C@H](Oc2ncnc3sc4c(c23)[C@@H](CCC(N)=O)CC4)CC1` [Compound I-94, 3-((S)-4-(((1r,4S)-4-(methyl(2-oxo-2-(pyrrolidin-1-yl)ethyl)amino)cyclohexyl)oxy)-6,7-dihydro-5H-cyclopenta[4,5]thieno[2,3-d]pyrimidin-5-yl)propanamide], the IC50 in experiment [1] (read-out: TNFα production IC50) is not below 5 µM; in experiment [2], less than 5 µM.
For the compound `NC(=O)C(F)(F)C[C@H]1CCc2sc3ncnc(O[C@H]4CC[C@H](N5CCOCC5)CC4)c3c21` [Compound I-142, 2,2-difluoro-3-((R)-4-(((1r,4R)-4-morpholinocyclohexyl)oxy)-6,7-dihydro-5H-cyclopenta[4,5]thieno[2,3-d]pyrimidin-5-yl)propanamide], the half-maximal inhibitory concentration (IC50) was not above 0.5 µM in experiment [1] (read-out: IL8 production IC50), not above 0.5 µM in experiment [1] (read-out: TNFα production IC50) and less than 5 µM in experiment [2].
With `NC(=O)[C@H](O)C[C@H]1CCc2sc3ncnc(O[C@H]4CC[C@H](N5CCOCC5)CC4)c3c21` [Compound I-93, (R)-2-hydroxy-3-((R)-4-(((1r,4R)-4-morpholinocyclohexyl)oxy)-6,7-dihydro-5H-cyclopenta[4,5]thieno[2,3-d]pyrimidin-5-yl)propanamide], the half-inhibitory concentration (IC50) in experiment [1] (read-out: IL8 production IC50) and in experiment [1] (read-out: TNFα production IC50) was 1 to 5 µM in each case.
As to `C[C@@H](O)C[C@H]1CCc2sc3ncnc(O[C@H]4CC[C@H](N(C)CC(=O)N5CCCC5)CC4)c3c21` [Compound I-109, 2-[(4-[[(3R)-3-[(2R)-2-hydroxypropyl]-7-thia-9,11-diazatricyclo[6.4.0.0[2,6]]dodeca-1(8),2(6),9,11-tetraen-12-yl]oxy]cyclohexyl)(methyl)amino]-1-(pyrrolidin-1-yl)ethan-1-one], the half-inhibitory concentration (IC50) in experiment [1] (read-out: TNFα production IC50) was 0.5 to 1 µM; in experiment [2], less than 5 µM.
Consider `CN(C)[C@H]1CC[C@H](Oc2ncnc3sc4c(c23)C[C@H](CCO)CC4)CC1` [Compound I-110, 2-[(12R)-3-[[4-(dimethylamino)cyclohexyl]oxy]-8-thia-4,6-diazatricyclo[7.4.0.0[2,7]]trideca-1(9),2(7),3,5-tetraen-12-yl]ethan-1-ol formate], for which the IC50 in experiment [1] (read-out: IL8 production IC50) is not above 0.5 µM; in experiment [1] (read-out: TNFα production IC50), 0.5 to 1 µM; in experiment [2] it was less than 5 µM.
Consider `CN(C)[C@H]1CC[C@H](Oc2ncnc3sc4c(c23)[C@@H](C[C@@H](O)C2CCCO2)CC4)CC1` (stereo partly drawn) [Compound I-88, (1R)-2-((R)-4-(((1r,4R)-4-(dimethylamino)cyclohexyl)oxy)-6,7-dihydro-5H-cyclopenta[4,5]thieno[2,3-d]pyrimidin-5-yl)-1-(tetrahydrofuran-2-yl)ethanol], for which the half-maximal inhibitory concentration (IC50) is 1 to 5 µM in experiment [1] (read-out: IL8 production IC50), 1 to 5 µM in experiment [1] (read-out: TNFα production IC50) and less than 5 µM in experiment [2].
With `CN(C)[C@H]1CC[C@H](Oc2nc(Nc3ccccc3)nc3sc4c(c23)C(CC(N)=O)CC4)CC1` (stereo partly drawn) [Compound I-204, 2-(12-[[4-(dimethylamino)cyclohexyl]oxy]-10-(phenylamino)-7-thia-9, 11-diazatricyclo[6.4.0.0̂[2,6]]dodeca-1(12),2(6),8, 10-tetraen-3-yl)acetamide], the results for the 50% inhibitory concentration (IC50) in experiment [1] (read-out: IL8 production IC50) and in experiment [1] (read-out: TNFα production IC50) were 1 to 5 µM and 0.5 to 1 µM, respectively.
With `Cn1cc(Nc2nc(O[C@H]3CC[C@H](N(C)C)CC3)c3c4c(sc3n2)CCC4CC(N)=O)cn1` (stereo in doubt) [Compound I-222, 2-[(3R)-12-[[4-(dimethylamino)cyclohexyl]oxy]-10-[(1-methyl-1H-pyrazol-4-yl)amino]-7-thia-9, 11-diazatricyclo[6.4.0.0[2,6]]dodeca-1(8),2(6),9,11-tetraen-3-yl]acetamide], the IC50 in experiment [1] (read-out: IL8 production IC50) and in experiment [1] (read-out: TNFα production IC50) was not below 5 µM throughout.
